“And” between values parts separate entries of the source, which are not always exact repeats. Equal values may be shown once. Inconclusive results and toxic doses are left out.
System: L1210 leukemia ip in BDF1 mice, survival T/C
Experiment: NCI In Vivo Anticancer Drug Screen. Data for tumor model L1210 Leukemia (intraperitoneal) in B6D2F1 (BDF1) mice
Settings: endpoint: mean survival time, higher = longer survival
Outline: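 Tumor cells were implanted, animals were treated, and survival was followed. The result divides the treated measurement by the vehicle-control measurement.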

[1] = dose: 100.0 mg/kg/injection, schedule: Q04DX003 (ip), vehicle: Klucel (hydroxypropylcellulose) (HPC)
[2] = dose: 200.0 mg/kg/injection, schedule: Q04DX003 (ip), vehicle: Klucel (hydroxypropylcellulose) (HPC)
[3] = dose: 400.0 mg/kg/injection, schedule: Q04DX003 (ip), vehicle: Klucel (hydroxypropylcellulose) (HPC)
[4] = dose: 100.0 mg/kg/injection, schedule: Q01DX009 (ip), vehicle: Klucel (hydroxypropylcellulose) (HPC)
[5] = dose: 200.0 mg/kg/injection, schedule: Q01DX009 (ip), vehicle: Klucel (hydroxypropylcellulose) (HPC)
[6] = dose: 400.0 mg/kg/injection, schedule: Q01DX009 (ip), vehicle: Klucel (hydroxypropylcellulose) (HPC)
[7] = dose: 100.0 mg/kg/injection, schedule: Q01DX001 (ip), vehicle: saline
[8] = dose: 200.0 mg/kg/injection, schedule: Q01DX001 (ip), vehicle: saline
[9] = dose: 100.0 mg/kg/injection, schedule: Q04DX002 (ip), vehicle: Klucel (hydroxypropylcellulose) (HPC)
[10] = dose: 200.0 mg/kg/injection, schedule: Q04DX002 (ip), vehicle: Klucel (hydroxypropylcellulose) (HPC)
[11] = dose: 400.0 mg/kg/injection, schedule: Q04DX002 (ip), vehicle: Klucel (hydroxypropylcellulose) (HPC)
[12] = dose: 100.0 mg/kg/injection, schedule: Q01DX001 (ip), vehicle: Klucel (hydroxypropylcellulose) (HPC)
[13] = dose: 200.0 mg/kg/injection, schedule: Q01DX001 (ip), vehicle: Klucel (hydroxypropylcellulose) (HPC)
[14] = dose: 400.0 mg/kg/injection, schedule: Q01DX001 (ip), vehicle: Klucel (hydroxypropylcellulose) (HPC)
[15] = dose: 400.0 mg/kg/injection, schedule: Q01DX001 (ip), vehicle: saline

CCOC(=O)/C=C(\CC(=O)OCC)Nc1ccc(OC)cc1
T/C (dose: 50.0 mg/kg/injection, schedule: Q01DX009 (ip), vehicle: saline): 89 % of control | T/C (dose: 100.0 mg/kg/injection, schedule: Q01DX009 (ip), vehicle: saline): 91 % of control | T/C (dose: 100.0 mg/kg/injection, schedule: Q04DX003 (ip), vehicle: acetone): 91 % of control | T/C (dose: 200.0 mg/kg/injection, schedule: Q04DX003 (ip), vehicle: acetone): 100 % of control | T/C (dose: 400.0 mg/kg/injection, schedule: Q04DX003 (ip), vehicle: acetone): 97 % of control

C=C(Br)CNCCCCCC
T/C (dose: 12.5 mg/kg/injection, schedule: Q01DX009 (ip), vehicle: Klucel (hydroxypropylcellulose) (HPC)): 94 % of control | T/C (dose: 25.0 mg/kg/injection, schedule: Q01DX009 (ip), vehicle: Klucel (hydroxypropylcellulose) (HPC)): 111 % of control

OCCCNc1nc2ccc(Cl)cc2c2ccccc12
T/C [1]: 116 % of control | T/C [2]: 107 % of control | T/C [3]: 108 % of control

O=C(c1ccccc1)c1ccc(O)cc1
T/C [4]: 93 % of control | T/C [1]: 103 % of control | T/C [5]: 93 % of control | T/C [2]: 100 % of control | T/C [6]: 100 % of control | T/C [3]: 103 % of control

Clc1ccc2nc(CI)c(CI)nc2c1
T/C (dose: 6.25 mg/kg/injection, schedule: Q01DX009 (ip), vehicle: acetone): 102 % of control | T/C (dose: 12.5 mg/kg/injection, schedule: Q01DX009 (ip), vehicle: acetone): 102 % of control | T/C (dose: 12.5 mg/kg/injection, schedule: Q04DX003 (ip), vehicle: acetone): 104 % of control | T/C (dose: 25.0 mg/kg/injection, schedule: Q04DX003 (ip), vehicle: acetone): 96 % of control

COC(=O)c1cc(C)cc(N(c2ccccc2N)S(=O)(=O)c2ccc(C)cc2)c1C
T/C [7]: 92 % of control | T/C [8]: 92 % of control

CCc1cccc(CC)c1NC(=O)CCl
T/C [9]: 111 % of control | T/C [1]: 108 % of control | T/C [10]: 104 % of control | T/C [11]: 90 % of control | T/C [3]: 95 % of control

OC(CN1CC1)C(O)CN1CC1 (stereo unspecified)
T/C (dose: 0.06 mg/kg/injection, schedule: Q01DX Z (ip), vehicle: carboxymethylcellulose (CMC)): 114 % of control | T/C (dose: 0.4 mg/kg/injection, schedule: Q01DX Z (ip), vehicle: saline): 100 % of control | T/C (dose: 0.5 mg/kg/injection, schedule: Q01DX Z (ip), vehicle: carboxymethylcellulose (CMC)): 200 % of control | T/C (dose: 0.6 mg/kg/injection, schedule: Q01DX Z (ip), vehicle: saline): 100 % of control | T/C (dose: 0.9 mg/kg/injection, schedule: Q01DX Z (ip), vehicle: saline): 95 % of control | T/C (dose: 1.0 mg/kg/injection, schedule: Q01DX Z (ip), vehicle: carboxymethylcellulose (CMC)): 90 % of control | T/C (dose: 1.3 mg/kg/injection, schedule: Q01DX Z (ip), vehicle: saline): 95 % of control

C1CCC(CCC(CCC2CCCCC2)CCC2CCCCC2)CC1
T/C [12]: 89 % of control | T/C [13]: 91 % of control | T/C [14]: 91 % of control

O=NN(CCF)C(=O)NCCF
T/C (dose: 1.25 mg/kg/injection, schedule: Q01DX001 (ip), vehicle: saline): 113 % of control | T/C (dose: 1.75 mg/kg/injection, schedule: Q01DX001 (ip), vehicle: saline): 118 % of control | T/C (dose: 2.0 mg/kg/injection, schedule: Q01DX001 (ip), vehicle: saline): 116 % of control | T/C (dose: 2.5 mg/kg/injection, schedule: Q01DX001 (ip), vehicle: saline): 118 % of control | T/C (dose: 3.5 mg/kg/injection, schedule: Q01DX001 (ip), vehicle: saline): 161 % of control | T/C (dose: 5.0 mg/kg/injection, schedule: Q01DX001 (ip), vehicle: saline): 156 % of control | T/C (dose: 6.0 mg/kg/injection, schedule: Q01DX001 (ip), vehicle: saline): 242 % of control | T/C (dose: 7.0 mg/kg/injection, schedule: Q01DX001 (ip), vehicle: saline): 316 % of control | T/C (dose: 8.0 mg/kg/injection, schedule: Q01DX001 (ip), vehicle: saline): 201 % of control | T/C (dose: 12.0 mg/kg/injection, schedule: Q01DX001 (ip), vehicle: saline): 312 % of control and 333 % of control | T/C (dose: 18.0 mg/kg/injection, schedule: Q01DX001 (ip), vehicle: saline): 322 % of control

CC1(C)C2CC3C(=CCCC3(Cl)C#N)C1C2 (stereo unspecified)
T/C [4]: 98 % of control | T/C [1]: 106 % of control | T/C [5]: 102 % of control | T/C [2]: 101 % of control | T/C [6]: 93 % of control | T/C [3]: 97 % of control

O=c1c(-c2ccccc2)coc2ccccc12
T/C (dose: 100.0 mg/kg/injection, schedule: Q04DX003 (ip), vehicle: saline with Tween-80): 97 % of control | T/C (dose: 200.0 mg/kg/injection, schedule: Q04DX003 (ip), vehicle: saline with Tween-80): 92 % of control | T/C (dose: 400.0 mg/kg/injection, schedule: Q04DX003 (ip), vehicle: saline with Tween-80): 90 % of control

CCCCCCCCCC(CCCCCCCC)SC(C)=O (stereo unspecified)
T/C [9]: 108 % of control | T/C [10]: 103 % of control | T/C [11]: 103 % of control

CON(C)c1nc(Cl)nc(Cl)n1
T/C (dose: 50.0 mg/kg/injection, schedule: Q01DX001 (ip), vehicle: saline): 105 % of control | T/C [12]: 103 % of control | T/C [7]: 100 % of control | T/C [4]: 95 % of control | T/C [13]: 94 % of control | T/C [8]: 94 % of control | T/C [5]: 98 % of control | T/C [14]: 98 % of control | T/C [15]: 102 % of control | T/C [6]: 96 % of control

CCCCN=Cc1cc([N+](=O)[O-])ccc1O.CCCCN=Cc1cc([N+](=O)[O-])ccc1O.[Ni]
T/C (dose: 12.5 mg/kg/injection, schedule: Q01DX009 (ip), vehicle: saline with Tween-80): 98 % of control | T/C (dose: 25.0 mg/kg/injection, schedule: Q01DX009 (ip), vehicle: saline with Tween-80): 94 % of control | T/C (dose: 50.0 mg/kg/injection, schedule: Q01DX009 (ip), vehicle: saline with Tween-80): 86 % of control

CCOC(=O)C(=Cc1ccc(C=C(C(=O)OCC)C(=O)OCC)cc1)C(=O)OCC
T/C (dose: 50.0 mg/kg/injection, schedule: Q04DX003 (ip), vehicle: Klucel (hydroxypropylcellulose) (HPC)): 100 % of control | T/C [1]: 100 % of control | T/C [2]: 94 % of control

CN1CCN(C)P1N1CCCC1
T/C [7]: 89 % of control | T/C [8]: 95 % of control | T/C [15]: 93 % of control

O=C1CC(=Nc2ccc([N+](=O)[O-])cc2)NN1c1c(Cl)cc(Cl)cc1Cl
T/C (dose: 100.0 mg/kg/injection, schedule: Q01DX009 (ip), vehicle: saline with Tween-80): 97 % of control | T/C (dose: 200.0 mg/kg/injection, schedule: Q01DX009 (ip), vehicle: saline with Tween-80): 101 % of control | T/C (dose: 400.0 mg/kg/injection, schedule: Q01DX009 (ip), vehicle: saline with Tween-80): 90 % of control

CC(C)(C)C1CCC(S(=O)(=O)c2ccccc2)C(Cl)C1 (stereo unspecified)
T/C [4]: 102 % of control | T/C (dose: 100.0 mg/kg/injection, schedule: Q04DX003 (ip), vehicle: saline): 102 % of control | T/C [5]: 104 % of control | T/C (dose: 200.0 mg/kg/injection, schedule: Q04DX003 (ip), vehicle: saline): 96 % of control | T/C [6]: 104 % of control | T/C (dose: 400.0 mg/kg/injection, schedule: Q04DX003 (ip), vehicle: saline): 93 % of control

Cc1ccc(S(=O)(=O)N=S(CCCl)CCCl)cc1
T/C (dose: 100.0 mg/kg/injection, schedule: Q04DX002 (ip), vehicle: saline): 92 % of control | T/C (dose: 200.0 mg/kg/injection, schedule: Q04DX002 (ip), vehicle: saline): 99 % of control | T/C (dose: 400.0 mg/kg/injection, schedule: Q04DX002 (ip), vehicle: saline): 101 % of control
